Read-outs that look alike come from different tables or passages of the source.
Experiments:
[1] = Nasal absorption of hydroxocobalamin nasal spray in healthy volunteers; format: in vivo, human
Description: Healthy volunteers received a dose of 500 μg hydroxocobalamin in 50 μl nasal spray containing as main constituents hydroxocobalamin, mannitol 10% w/v, propylene glycol 10% v/v and water (total dose 500 μg hydroxocobalamin HCl) using an Aptar VP7 spray pump. The following increases of hydroxocobalamin blood levels (increase from C t=0 to Cmax after 30 minutes) were measured: […]

[2] = 6 Crohn's disease patients, 1500 μg nasal, cited from earlier work
[3] = geriatric patients, cited from earlier work
nasal epithelial cells = conditions: 1% concentration; cited from earlier work
[4] = about 0.1% (w/w); versus benzalkonium chloride; cited from earlier work
[5] = healthy volunteers, 500 μg nasal spray

C/C1=C2/[N-][C@H]([C@H](CC(N)=O)[C@@]2(C)CCC(=O)NC[C@@H](C)OP(=O)([O-])O[C@H]2[C@@H](O)[C@@H](n3cnc4cc(C)c(C)cc43)O[C@@H]2CO)[C@]2(C)N=C(/C(C)=C3N=C(/C=C4N=C1[C@@H](CCC(N)=O)C\4(C)C)[C@@H](CCC(N)=O)[C@]\3(C)CC(N)=O)[C@@H](CCC(N)=O)[C@]2(C)CC(N)=O.[Co+3].[OH-] [hydroxocobalamin]
irritation in the nose [1, 5]: None of the volunteers
presence of red crustae in the nose afterwards [1, 5]: None of the volunteers
CV (coefficient of variation) of mean increase ([1]; healthy volunteers, 500 μg nasal spray, mannitol 10% w/v, propylene glycol 10% v/v): 23%
vitamin B12 Cmax levels ([1]; healthy volunteers, 500 μg nasal spray, exceeded in none of the volunteers): ≤ 1.5 ng/mL
Mean increase per 500 μg Hydroxocobalamin ([1]; healthy volunteers, nasal spray, mannitol 10% w/v, propylene glycol 10% v/v, water, SD=127 pg/ml): 549 pg/mL
increase of hydroxocobalamin blood levels, alternative composition ([1]; nasal spray with mannitol 5% w/v, propylene glycol 15% v/v and water): Comparable results
mean increase in vitamin B12 level ([2]; three days, SD 645 pg/ml): 1520 pg/mL
CV (coefficient of variation) of mean increase [2]: 42.5%
Cmax levels (±SD) after nasal administration ([3]; dose of 750 μg): 2.7 ± 1.2 ng/mL
Cmax levels (±SD) after nasal administration ([3]; dose): 4.7 ± 3.4 ng/mL

OC[C@@H](O)[C@@H](O)[C@H](O)[C@H](O)CO [mannitol]
cellular damage (nasal epithelial cells): no cellular damage

C/C=C/C=C/C(=O)[O-].[K+] [potassium sorbate]
safety as a preservative in nasal products [4]: much more safe than benzalkonium chloride
